These compounds were tested against PARP7 (Homo sapiens (Human), UniProt Q7Z3E1) (assay: TR-FRET assay: displacement of biotinylated Probe A from the TIPARP active site (Enzymatic Assay for Inhibition of PARP7)). Conditions: TIPARP 6 nM, Probe A 2 nM, 25° C.
Format: binding
Description: Example A. Enzymatic Assay for Inhibition of PARP7
Displacement of Probe A, a biotinylated probe binding to the TIPARP active site, was measured using a time-resolved fluorescence energy transfer (TR-FRET) assay. 20 nL of a dose response curve of each test compound was spotted in black 384-well polystyrene proxiplates (Perkin Elmer) using a Mosquito (TTP Labtech). Reactions were performed in a 8 μl volume by adding 6 μL of TIPARP and Probe A in assay buffer (20 mM HEPES pH=8, 100 mM NaCl, 0.1% bovine serum albumin, 2 mM DTT and 0.002% Tween20), incubating with test compound at 25° C. for 30 min, then adding 2 μL of ULight-anti 6×His and LANCE Eu-W1024 labeled streptavidin (Perkin Elmer). The final concentrations of TIPARP and Probe A were 6 nM and 2 nM, respectively. The final concentration of ULight-anti 6×His and LANCE Eu-W1024 labeled streptavidin were 4 nM and 0.25 nM, respectively. Reactions were incubated at 25° C. for an additional 30 min, then read on an Envision platereader equipped with a LANCE/DELFIA top mirror (Perkin Elmer) using excitation of 320 nm and emission of 615 nm and […] with a […]. The ratio of the 665/615 nm emission were calculated for each well to determine the amount of complex of TIPARP and Probe Ain each well. Control wells containing a negative control of 0.25% DMSO vehicle or a positive control of 100 μM 5-(5-(piperidin-4-yloxy)isoindolin-2-yl)-4-(trifluoromethyl)pyridazin-3(2H)-one were used to calculate the % inhibition as described below:
[formula] where TRFcmpd is the TR-FRET ratio from the compound treated well, TRFmin is the TR-FRET ratio from the 5-(5-(piperidin-4-yloxy)isoindolin-2-yl)-4-(trifluoromethyl)pyridazin-3(2H)-one—treated positive control well and TRFmax is the TR-FRET ratio from the DMSO-treated negative control well. The % inhibition values were plotted as a function of compound concentration and the following 4-parameter fit was applied to derive the IC50 values:
[formula] where top and bottom are normally allowed to float, but may be fixed at 100 or 0 respectively in a 3-parameter fit. The Hill Coefficient is normally allowed to float but may also be fixed at 1 in a 3-parameter fit. Y is the % inhibition and X is the compound concentration. Synthesis of Probe A

Sequence of PARP7 (Q7Z3E1 whole entry): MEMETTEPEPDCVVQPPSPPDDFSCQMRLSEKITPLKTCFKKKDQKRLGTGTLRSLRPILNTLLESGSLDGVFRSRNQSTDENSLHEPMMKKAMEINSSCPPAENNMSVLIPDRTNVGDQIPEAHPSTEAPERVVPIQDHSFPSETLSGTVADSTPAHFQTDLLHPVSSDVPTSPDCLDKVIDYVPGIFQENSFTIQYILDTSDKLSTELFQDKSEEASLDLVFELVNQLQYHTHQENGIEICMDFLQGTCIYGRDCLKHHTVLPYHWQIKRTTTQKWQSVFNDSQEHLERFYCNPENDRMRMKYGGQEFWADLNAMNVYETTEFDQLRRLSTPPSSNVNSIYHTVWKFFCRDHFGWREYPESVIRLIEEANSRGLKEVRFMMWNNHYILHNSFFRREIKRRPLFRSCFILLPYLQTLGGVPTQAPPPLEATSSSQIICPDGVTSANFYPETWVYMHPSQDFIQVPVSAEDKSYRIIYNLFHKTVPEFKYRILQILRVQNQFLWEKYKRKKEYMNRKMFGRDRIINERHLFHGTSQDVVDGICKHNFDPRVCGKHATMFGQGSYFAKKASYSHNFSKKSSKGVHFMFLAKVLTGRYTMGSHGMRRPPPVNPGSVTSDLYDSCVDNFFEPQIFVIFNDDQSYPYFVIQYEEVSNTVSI

Structure (SMILES) | IC50 [nM]
C[C@@H](CO[C@@H]1CCN(C2CCN(c3cnc(C(F)(F)F)cn3)CC2)C1=O)Oc1cn[nH]c(=O)c1Br [Example 46B, 4-bromo-5-(((S)-1-(((R)-2-oxo-1-(1-(5-(trifluoromethyl)pyrazin-2-yl)piperidin-4-yl)pyrrolidin-3-yl)oxy)propan-2-yl)oxy)pyridazin-3(2H)-one] | < 100
C[C@@H](CO[C@@H]1CCN(C2CCN(c3ncc(C(F)(F)F)cn3)CC2C(N)=O)C1=O)Nc1cn[nH]c(=O)c1C(F)(F)F (stereo partly drawn) [Example 68, 4-((R)-2-oxo-3-((S)-2-((6-oxo-5-(trifluoromethyl)-1,6-dihydropyridazin-4-yl)amino)propoxy)pyrrolidin-1-yl)-1-(5-(trifluoromethyl)pyrimidin-2-yl)piperidine-3-carboxamide] | < 100
C[C@@H](CO[C@@H]1CCN(C2CCN(c3ccc(C#N)cn3)CC2)C1=O)Nc1cn[nH]c(=O)c1C(F)(F)F [Example 14B, 6-(4-((R)-2-oxo-3-((S)-2-((6-oxo-5-(trifluoromethyl)-1,6-dihydropyridazin-4-yl)amino)propoxy)pyrrolidin-1-yl)piperidin-1-yl)nicotinonitrile] | < 100
COC[C@@H](CO[C@@H]1CCN(C2CCN(c3ncc(C(F)(F)F)cn3)CC2)C1=O)Oc1cn[nH]c(=O)c1Br [Example 56B, 4-Bromo-5-(((S)-1-methoxy-3-(((R)-2-oxo-1-(1-(5-(trifluoromethyl)pyrimidin-2-yl)piperidin-4-yl)pyrrolidin-3-yl)oxy)propan-2-yl)oxy)pyridazin-3(2H)-one] | < 100
C[C@H](CN[C@H]1CCN(C2CCN(c3ncc(C(F)(F)F)cn3)CC2)C1=O)Nc1cn[nH]c(=O)c1C(F)(F)F (single isomer, unassigned) [Example 26C] | ≥ 1000
C[C@@H](COCC(=O)N(C)C1CCN(c2ncc(C(F)(F)F)cn2)CC1)Oc1cn[nH]c(=O)c1Br [Example 28, (S)-2-(2-((5-bromo-6-oxo-1,6-dihydropyridazin-4-yl)oxy)propoxy)-N-methyl-N-(1-(5-(trifluoromethyl)pyrimidin-2-yl)piperidin-4-yl)acetamide] | < 100
Cc1cnc(N2CCC(N3CC[C@@H](OC[C@H](C)Nc4cn[nH]c(=O)c4C(F)(F)F)C3=O)CC2)nc1 [Example 44, 5-(((S)-1-(((R)-1-(1-(5-methylpyrimidin-2-yl)piperidin-4-yl)-2-oxopyrrolidin-3-yl)oxy)propan-2-yl)amino)-4-(trifluoromethyl)pyridazin-3(2H)-one] | < 100
C[C@H](Nc1cn[nH]c(=O)c1C(F)(F)F)C(=O)N[C@@H]1CCN(C2CCN(c3ncc(C(F)(F)F)cn3)CC2)C1=O [Example 61, (S)—N—((R)-2-oxo-1-(1-(5-(trifluoromethyl)pyrimidin-2-yl)piperidin-4-yl)pyrrolidin-3-yl)-2-((6-oxo-5-(trifluoromethyl)-1,6-dihydropyridazin-4-yl)amino)propanamide] | < 100
COC[C@@H](CO[C@@H]1CCN(C2CCN(c3ncc(C#N)s3)CC2)C1=O)Nc1cn[nH]c(=O)c1C(F)(F)F [Example 54, 2-(4-((R)-3-((S)-3-methoxy-2-((6-oxo-5-(trifluoromethyl)-1,6-dihydropyridazin-4-yl)amino)propoxy)-2-oxopyrrolidin-1-yl)piperidin-1-yl)thiazole-5-carbonitrile] | < 100
C[C@@H](COCC(=O)N(C)C1CCN(c2ncc(C(F)(F)F)cn2)CC1)Oc1cn[nH]c(=O)c1C(F)(F)F [Example 25, (S)-N-methyl-2-(2-((6-oxo-5-(trifluoromethyl)-1,6-dihydropyridazin-4-yl)oxy)propoxy)-N-(1-(5-(trifluoromethyl)pyrimidin-2-yl)piperidin-4-yl)acetamide] | < 100
COC[C@@H](CO[C@H]1CCN(C2CCN(c3ncc(C(F)(F)F)cn3)CC2)C1=O)Oc1cn[nH]c(=O)c1C(F)(F)F [Example 51A, 5-(((S)-1-methoxy-3-(((S)-2-oxo-1-(1-(5-(trifluoromethyl)pyrimidin-2-yl)piperidin-4-yl)pyrrolidin-3-yl)oxy)propan-2-yl)oxy)-4-(trifluoromethyl)pyridazin-3(2H)-one] | 100 to 1000
C[C@@H]1CN(C2CCN(c3ncc(C(F)(F)F)cn3)CC2)C(=O)[C@H]1OC[C@H](C)Nc1cn[nH]c(=O)c1C(F)(F)F [Example 37A, 5-(((S)-1-(((3S,4R)-4-methyl-2-oxo-1-(1-(5-(trifluoromethyl)pyrimidin-2-yl)piperidin-4-yl)pyrrolidin-3-yl)oxy)propan-2-yl)amino)-4-(trifluoromethyl)pyridazin-3(2H)-one] | ≥ 1000
C[C@@H](CN[C@H]1CCN(C2CCN(c3ncc(C(F)(F)F)cn3)CC2)C1=O)Nc1cn[nH]c(=O)c1C(F)(F)F (single isomer, unassigned) [Example 26A] | ≥ 1000
C[C@@H](COC1CCN(C2CCN(c3ncc(C(F)F)cn3)CC2)C1=O)Oc1cn[nH]c(=O)c1C(F)(F)F (stereo partly drawn) [Example 27, 5-(((2S)-1-((1-(1-(5-(difluoromethyl)pyrimidin-2-yl)piperidin-4-yl)-2-oxopyrrolidin-3-yl)oxy)propan-2-yl)oxy)-4-(trifluoromethyl)pyridazin-3(2H)-one] | < 100
Cc1cnc(N2CCC(N3CC[C@@H](OC[C@H](C)Oc4cn[nH]c(=O)c4C(F)(F)F)C3=O)CC2)nc1 [Example 49B, 5-(((S)-1-(((R)-1-(1-(5-methylpyrimidin-2-yl)piperidin-4-yl)-2-oxopyrrolidin-3-yl)oxy)propan-2-yl)oxy)-4-(trifluoromethyl)pyridazin-3(2H)-one] | < 100
C[C@@H](CO[C@@H]1CCN(C2CCN(c3ncc(C(F)(F)F)cn3)CC2)C1=O)Oc1cn[nH]c(=O)c1Cl [Example 47B, 4-chloro-5-(((S)-1-(((R)-2-oxo-1-(1-(5-(trifluoromethyl)pyrimidin-2-yl)piperidin-4-yl)pyrrolidin-3-yl)oxy)propan-2-yl)oxy)pyridazin-3(2H)-one] | < 100
COC[C@@H](CO[C@H]1CCN(C2CCN(c3ncc(C)cn3)CC2)C1=O)Oc1cn[nH]c(=O)c1C(F)(F)F [Example 52A, 5-(((S)-1-methoxy-3-(((S)-1-(1-(5-methylpyrimidin-2-yl)piperidin-4-yl)-2-oxopyrrolidin-3-yl)oxy)propan-2-yl)oxy)-4-(trifluoromethyl)pyridazin-3(2H)-one] | 100 to 1000
C[C@@H](O)[C@@H](CO[C@@H]1CCN(C2CCN(c3ncc(C(F)(F)F)cn3)CC2)C1=O)Nc1cn[nH]c(=O)c1C(F)(F)F [Example 67, 5-(((2R,3R)-3-hydroxy-1-(((R)-2-oxo-1-(1-(5-(trifluoromethyl)pyrimidin-2-yl)piperidin-4-yl)pyrrolidin-3-yl)oxy)butan-2-yl)amino)-4-(trifluoromethyl)pyridazin-3(2H)-one] | < 100
COC[C@@H](CO[C@@H]1CCN(C2CCN(c3cnc(C(F)(F)F)cn3)CC2)C1=O)Nc1cn[nH]c(=O)c1C(F)(F)F [Example 18B] | < 100
C[C@@H](CO[C@H]1CCCN(C2CCN(c3ncc(C(F)(F)F)cn3)CC2)C1=O)Nc1cn[nH]c(=O)c1C(F)(F)F [Example 34A, (S)-3-((S)-2-((6-oxo-5-(trifluoromethyl)-1,6-dihydropyridazin-4-yl)amino)propoCyxy)-1′-(5-(trifluoromethyl)pyrimidin-2-yl)-[1,4′-bipiperidin]-2-one] | < 100
C[C@@H](CO[C@@H]1CCN([C@@H]2CCN(c3ncc(C(F)(F)F)cn3)C[C@@H]2F)C1=O)Nc1cn[nH]c(=O)c1C(F)(F)F (single isomer, unassigned) [Example 39A] | < 100
C[C@@H](CO[C@@H]1C(=O)N(C2CCN(c3ncc(C(F)(F)F)cn3)CC2)CC1(C)C)Nc1cn[nH]c(=O)c1C(F)(F)F [Example 35A, 5-(((S)-1-(((S)-4,4-dimethyl-2-oxo-1-(1-(5-(trifluoromethyl)pyrimidin-2-yl)piperidin-4-yl)pyrrolidin-3-yl)oxy)propan-2-yl)amino)-4-(trifluoromethyl)pyridazin-3(2H)-one] | ≥ 1000
C[C@@H](CO[C@H]1CCN(C2CCN(c3ncc(C(F)(F)F)cn3)CC2)C1=O)Nc1cn[nH]c(=O)c1C(F)(F)F [Example 10A, 5-((S)-1-((S)-1-(1-(5-(trifluoromethyl)pyrimidin-2-yl)piperidin-4-yl)-2-oxopyrrolidin-3-yloxy)propan-2-ylamino)-4-(trifluoromethyl)pyridazin-3(2H)-one] | 100 to 1000
C[C@@H](CO[C@H]1CCN(C2CCN(c3cnc(C(F)(F)F)cn3)CC2)C1=O)Nc1cn[nH]c(=O)c1C(F)(F)F [Example 13A, 5-(((S)-1-(((S)-2-oxo-1-(1-(5-(trifluoromethyl)pyrazin-2-yl)piperidin-4-yl)pyrrolidin-3-yl)oxy)propan-2-yl)amino)-4-(trifluoromethyl)pyridazin-3(2H)-one] | 100 to 1000

Reference: patent US11691969B2, “Pyridazinones as PARP7 inhibtors” (Ribon Therapeutics, Inc., priority 2019, dated 2023)
